Entries after “also recorded” stand apart in the source; their conditions may differ. Where a name gives a salt, the structure may show the parent alone.
Columns and labels:
[1] = Gelation of steroid drugs and alkaline-earth metal ion; format: physicochemical; design: key: L indicates that a liquid was formed; P indicates that a precipitate was formed; H indicates that a hydrogel was formed; L/H indicates that a mixture of a hydrogel and a liquid was formed; P->H indicates that a precipitate formed initially which converted to a hydrogel overnight; settings: molar ratio steroid drug:metal ion 1:1
Protocol: The molar ratio of the steroid drug to the alkaline earth metal ion was 1:1 for all of the above samples.
Preparation of hydrogel. […] To form the DexP-hydrogel containing bupivacaine chlorhydrate (BPV), a DexP aqueous solution (100 mM) was added to a mixture of bupivacaine (10 mg/mL; approx. 30.8 mM) and Ca^2+ (100 mM) in a volume ratio of 1:2:1.

[2] = system: C2C12 cells; assay: Cell viability (MTS assay, Transwell); format: cell-based; settings: 24 h exposure, hydrogels [DexP]=25 mM
Protocol: The cytotoxicity of DexP-hydrogels ([DexP]:[Ca^2+]=2:1, 1:1, or 2:3), and free DexP were assessed by exposing C2C12 cells to them for 24 h in a Transwell® system where the gels were separated from the cells by a permeable membrane (FIG. 12) and measuring cell viability by MTS (3-(4,5-dimethylthiazol-2-yl)-5-(3-carboxymethoxyphenyl)-2-(4-sulfophenyl)-2H-tetrazolium) assay. […] The concentration of free DexP in the cell culture media incubated with the DexP-hydrogel ([DexP]:[Ca^2+]=2:1) for 24 h was 2.5 mg/mL (calculated from the release profile in FIG. 3), and the reduction of cell viability in that group was similar to that from 2.5 mg/mL of free DexP (p=0.31, p<0.005 compared to untreated cells). 25 mM DexP-hydrogels with the ratio [DexP]:[Ca^2+]=1:1 were used in subsequent experiments.
Cell viability. In vitro cell viability in the presence of DexP hydrogels was investigated in C2C12 cells (American Type Culture Collection, Manassas, Va.). In brief, C2C12 cells were grown and maintained in DMEM with 20% FBS and 1% Penicillin Streptomycin (Invitrogen, Waltham, Mass.) at 37° C. in 5% CO2. Cells were seeded into the lower chamber of 24-well Transwell® plates (Costar 3470, pore size 0.4 micrometers, Corning Incorporated, Corning, N.Y.) at 50,000 cells/mL in DMEM with 2% horse serum and 1% penicillin streptomycin and incubated for 14 days to allow differentiation into myotubes. […]

[3] = system: sciatic nerve and surrounding tissues; assay: Histology: myotoxicity and inflammation scores; format: in vivo, rats; settings: for Inflammation (range 0-4) / Myotoxicity (range 0-6): median with 25th and 75th percentiles, bupivacaine 5.0 mg/mL
Text: 4 or 14 days after injection (n=6 at each time point), the sciatic nerve and surrounding tissues were harvested and processed for histology by hematoxylin-eosin staining (FIG. 6, Table 2). Overall, tissue reaction to all formulations was relatively benign.
Histology. Rats were euthanized by carbon dioxide 4 days or 14 days after injection. The nerve and surrounding tissue were harvested and underwent standard procedures to produce hematoxylin and eosin-stained slides. The samples were scored for inflammation (0-4) and myotoxicity (0-6). The inflammation score was a subjective quantification of severity, where 0 was normal and 4 was severe inflammation. The myotoxicity score was determined by the nuclear internalization and regeneration of myocytes, two representative characteristics of local anesthetics myotoxicity. Nuclear internalization was characterized by myocytes having nuclei located away from its usual location at the periphery of the cell. Regeneration was characterized by the presence of shrunken myocytes with basophilic cytoplasm. The scoring scale was as follows: 0=normal; 1=per fascicular internalization; 2=deep internalization (>5 cell layers); 3=perifascicular regeneration; 4=deep tissue regeneration (>5 cell layers); 5=hemefascicular regeneration; 6=holofascicular regeneration.

[4] = system: sciatic nerve; assay: Sciatic nerve blockade, sensory (modified hotplate test); format: in vivo, rats; settings: 0.3 mL at the sciatic nerve; bupivacaine 5 mg/mL (15.4 mM); DexP 25 mM where present; mean+/−SD
Protocol: Sciatic nerve blockade. Under brief isoflurane-oxygen anesthesia, the animals were injected with 0.3 mL of test material using a 23 G needle, which was introduced postero-medial to the greater trochanter until contact with bone.
Sensory nerve block was assessed by a modified hotplate test, as reported previously. The plantar surface of the rat's hind paw was placed on a pre-heated hot plate at 56° C. The time (termed thermal latency) that the animal would leave its hindpaw on the hotplate was recorded. Longer latencies reflected deeper degrees of local anesthesia. Pristine animals have latencies of about 2 s. After 12 s, the hindpaw was removed from the hotplate by the investigator to avoid tissue thermal injury or the development of hyperalgesia. Measurements were repeated 3 times at each timepoint. The duration of block was calculated as the time required for thermal latency to return to a value of 7 s from a higher value; 7 s is the midpoint between a baseline thermal latency of 2 seconds in adult rats, and a maximal latency of 12 s.

Molecule	Gelation ([1]; Ba^2+ concentration 2.5)	Gelation ([1]; Ba^2+ concentration 6.25)	Gelation ([1]; Ba^2+ concentration 12.5)	Gelation ([1]; Ba^2+ concentration 25)	Gelation ([1]; Ca^2+ concentration 2.5)	Gelation ([1]; Ca^2+ concentration 6.25)	Gelation ([1]; Ca^2+ concentration 12.5)	Gelation ([1]; Ca^2+ concentration 25)	Cell viability / cytotoxicity [2]	Inflammation (range 0-4) ([3]; 4 days)	Myotoxicity (range 0-6) ([3]; 4 days)	Inflammation (range 0-4) ([3]; 14 days)	Myotoxicity (range 0-6) ([3]; 14 days)	Tissue reaction (histology, H&E) ([3]; day 4 after injection at the sciatic nerve, listed as free bupivacaine solution, hydrochloride)	Tissue reaction (histology, H&E) ([3]; day 14 after injection at the sciatic nerve)	Duration of sensory blockade [4] [min]
C[C@H]1C[C@H]2[C@@H]3CCC4=CC(=O)C=C[C@]4(C)[C@@]3(F)[C@@H](O)C[C@]2(C)[C@@]1(O)C(=O)COP(=O)(O)O [Betamethasone phosphate, betamethasone phosphate disodium]	L	L	P−>H	P−>H	L/H	L/H	H	H								
C[C@@H]1C[C@H]2[C@@H]3CCC4=CC(=O)C=C[C@]4(C)[C@@]3(F)[C@@H](O)C[C@]2(C)[C@@]1(O)C(=O)COP(=O)(O)O [Dexamethasone phosphate, dexamethasone phosphate disodium]	L	L	P−>H	P−>H	L/H	L/H	H	H	concentration-dependent reduction of cell viability							
CCCCN1CCCCC1C(=O)Nc1c(C)cccc1C (centres unmarked) [Bupivacaine solution, bupivacaine hydrochloride]										2.0 (1.0-2.5)	3.0 (3.0-3.75)	1.0 (0.5-1.0)	1.0 (0.5-1.0)	inflammatory infiltrate consisting primarily of macrophages with lymphocytes and occasional neutrophils; also recorded: evidence of myotoxicity	diminished compared to reaction at day 4, almost back to normal	126 ± 38
hydrocortisone phosphate disodium	L	L	P−>H	P−>H	L/H	L/H	H	H								

From patent US20190125669A1, “SYSTEMS AND METHODS FOR STEROIDAL GELS” (Children's Medical Center Corporation, priority 2016, published 2019)
